Measurements from patent US20030181334A1, “Herbicidal method” (priority 2001, published 2003).

Assays:
[1] = system: Amaranthus retroflexus, Abutilon theophrasti, Alopecurus myosuroides, Avena fatua, Brassica rapa and Echinochloa crus-galli; assay: Pre-emergence and post-emergence effect on weeds; format: in vivo; settings: 500 g/ha or less; pre- or post-emergence application; one or more of the weed species; two weeks after treatment
From the text: Pre-Emergence Effect on Weeds Seed of various broad-leaf and grass weed species were sown and compound of formula (I), dissolved in a mixture of acetone and water, was applied at a rate of 500 g/ha or less to the soil surface. The weed species used were Amaranthus retroflexus, Abutilon theophrasti, Alopecurus myosuroides, Avena fatua, Brassica rapa and Echinochloa crus-galli. Post-Emergence Effect on Weeds Seed of the weed species Amaranthus retroflexus, Abutilon theophrasti, Alopecurus myosuroides, Avena fatua, Brassica rapa and Echinochloa crus-galli were sown in soil and grown up to a 1-3 leaves stage. A post-emergence application of compound of formula (I), dissolved in a mixture of acetone and water, was applied at a rate of 500 g/ha or less. Two weeks after treatment in the above test methods, weed control was assessed as a percentage reduction in plant growth, in comparison with untreated control.

| melting point [°C] | SMILES | herbicidal activity (weed control assessed as percentage reduction in plant growth in comparison with untreated control) [1] |
| --- | --- | --- |
| 212 to 213 | N#Cc1cc(C#N)cc(Oc2cccc(Oc3cc(C#N)cc(C#N)c3)c2)c1 [Compound 90, 5-[3-(3,5-dicyanophenoxy)phenoxy]isophthalonitrile] |  |
| 156 | N#Cc1cc(C#N)cc(Oc2nccc(Oc3cc(Cl)cc(Cl)c3)n2)c1 [Compound 83, 5-[4-(3,5-dichlorophenoxy)pyrimidin-2-yloxy] isophthalonitrile] |  |
| 196 | N#Cc1cc(C#N)cc(Oc2ccnc(Oc3cc(Cl)cc(Cl)c3)n2)c1 [Compound 84, 5-[2-(3,5-dichlorophenoxy)pyrimidin-4-yloxy]isophthalonitrile] |  |

The remaining lines, values behind:

| SMILES | melting point [°C] | herbicidal activity (weed control assessed as percentage reduction in plant growth in comparison with untreated control) [1] |
| --- | --- | --- |
| N#Cc1cccc(Oc2cc(C#N)cc(C#N)c2)c1 [Compound 42, 5-(3-cyanophenoxy)isophthalonitrile] |  | very good herbicidal activity |
| N#Cc1cc(C#N)cc(Oc2cccc(OC(F)(F)C(F)F)c2)c1 [Compound 44, 5-(3-[1,1,2,2-tetrafluoroethoxy]phenoxy)isophthalonitrile] |  | very good herbicidal activity |
| N#Cc1cc(C#N)cc(Oc2cccc(O)c2)c1 [Compound 49, 5-(3-hydroxyphenoxy)isophthalonitrile] | 143 |  |
| N#Cc1cc(C#N)cc(Oc2cccc(Oc3ccnc(Cl)n3)c2)c1 [Compound 1, 5-[3-(2-chloropyrimidin-4-yloxy)phenoxy]isophthalonitrile] |  | very good herbicidal activity |
